Assay results taken from patent publication US10758534B2 (Vertex Pharmaceuticals Incorporated, priority 2014, dated 2020).

Target: T1, F508del (Homo sapiens, UniProt P13569, DEL508-508)
T1 construct: expressed in transfected cells
Experiment: Protocol 1: membrane potential optical assay (FLIPR III, voltage sensing dye), identification of potentiator compounds
Assay type: cell-based
Conditions: Table 3, compounds of Table 1
Summary of the method: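 Membrane potential in forskolin-activated, temperature-rescued F508del NIH 3T3 cells is followed with a voltage-sensing dye on FLIPR III. A chloride ion gradient created at the single addition step provides the driving force, after prior compound treatment.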

T1 sequence (P13569 with tags, fused parts or gaps DEL508-508): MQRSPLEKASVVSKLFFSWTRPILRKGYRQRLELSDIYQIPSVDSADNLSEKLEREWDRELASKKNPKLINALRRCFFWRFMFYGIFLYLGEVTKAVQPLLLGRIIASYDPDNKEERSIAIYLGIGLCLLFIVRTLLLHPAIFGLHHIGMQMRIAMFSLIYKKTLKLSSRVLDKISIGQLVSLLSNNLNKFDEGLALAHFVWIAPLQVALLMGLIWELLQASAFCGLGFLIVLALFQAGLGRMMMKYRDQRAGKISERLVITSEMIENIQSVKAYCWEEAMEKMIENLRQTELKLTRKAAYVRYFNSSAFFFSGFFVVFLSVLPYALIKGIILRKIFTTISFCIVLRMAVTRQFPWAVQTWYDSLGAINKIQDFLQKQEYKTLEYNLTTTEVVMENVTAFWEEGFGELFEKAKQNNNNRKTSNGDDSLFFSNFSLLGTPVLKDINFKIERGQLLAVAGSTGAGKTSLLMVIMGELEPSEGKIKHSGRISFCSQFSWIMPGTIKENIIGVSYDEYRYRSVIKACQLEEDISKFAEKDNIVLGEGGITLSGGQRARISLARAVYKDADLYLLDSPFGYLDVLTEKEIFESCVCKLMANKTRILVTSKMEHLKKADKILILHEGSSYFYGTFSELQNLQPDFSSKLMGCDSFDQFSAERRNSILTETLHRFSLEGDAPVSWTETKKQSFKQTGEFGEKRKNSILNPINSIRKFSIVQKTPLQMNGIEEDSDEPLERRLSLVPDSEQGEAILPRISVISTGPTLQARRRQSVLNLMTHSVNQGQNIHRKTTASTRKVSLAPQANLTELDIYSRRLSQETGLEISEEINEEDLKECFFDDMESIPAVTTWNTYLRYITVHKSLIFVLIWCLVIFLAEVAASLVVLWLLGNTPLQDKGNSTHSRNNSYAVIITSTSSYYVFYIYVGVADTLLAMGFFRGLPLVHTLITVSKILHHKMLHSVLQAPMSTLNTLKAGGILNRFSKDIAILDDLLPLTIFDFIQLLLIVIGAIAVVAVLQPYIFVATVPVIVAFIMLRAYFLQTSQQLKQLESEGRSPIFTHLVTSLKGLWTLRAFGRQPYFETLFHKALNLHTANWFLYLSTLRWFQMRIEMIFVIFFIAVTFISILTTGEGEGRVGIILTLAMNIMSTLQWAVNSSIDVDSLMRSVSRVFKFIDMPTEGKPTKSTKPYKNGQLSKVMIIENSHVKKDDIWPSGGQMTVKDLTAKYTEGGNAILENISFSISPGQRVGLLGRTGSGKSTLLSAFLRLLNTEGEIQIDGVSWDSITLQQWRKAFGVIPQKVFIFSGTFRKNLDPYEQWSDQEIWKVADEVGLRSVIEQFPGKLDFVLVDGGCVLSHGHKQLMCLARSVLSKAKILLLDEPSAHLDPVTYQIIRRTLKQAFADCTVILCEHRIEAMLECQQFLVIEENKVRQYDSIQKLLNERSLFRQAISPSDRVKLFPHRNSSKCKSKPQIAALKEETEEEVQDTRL

SMILES	EC30
COc1cc(C)cc(S(=O)(=O)NC(=O)c2ccc(-c3cc(F)cc(OCC(C)C)c3)nc2N2C[C@@H](C)CC2(C)C)n1 [Compound 1482, 6-(3-fluoro-5-isobutoxy-phenyl)-N-[(6-methoxy-4-methyl-2-pyridyl)sulfonyl]-2-[(4S)-2,2,4-trimethylpyrrolidin-1-yl]pyridine-3-carboxamide]	+++ (“+++” means <3 uM)
COc1cccc(S(=O)(=O)NC(=O)c2ccc(-c3cc(F)cc(OCC(C)C)c3)nc2N2C[C@@H](C)CC2(C)C)n1 [Compound 1483, 6-(3-fluoro-5-isobutoxy-phenyl)-N-[(6-methoxy-2-pyridyl)sulfonyl]-2-[(4S)-2,2,4-trimethylpyrrolidin-1-yl]pyridine-3-carboxamide]	+++ (“+++” means <3 uM)
C[C@@H]1CN(c2nc(C(C)(C)C)c(/C=C/C3CCCCC3)cc2C(=O)NS(=O)(=O)c2cccc(N)n2)C(C)(C)C1 [Compound 1484, N-[(6-amino-2-pyridyl)sulfonyl]-6-tert-butyl-5-[(E)-2-cyclohexylvinyl]-2-[(4S)-2,2,4-trimethylpyrrolidin-1-yl]pyridine-3-carboxamide]	+++ (“+++” means <3 uM)
CC1CN(c2nc(C(C)(C)C)c(C3=CCCCO3)cc2C(=O)NS(=O)(=O)c2cccc(N)n2)C(C)(C)C1 (stereo not shown) [Compound 1485, N-[(6-amino-2-pyridyl)sulfonyl]-6-tert-butyl-5-(3,4-dihydro-2H-pyran-6-yl)-2-(2,2,4-trimethylpyrrolidin-1-yl)pyridine-3-carboxamide]	+++ (“+++” means <3 uM)
Cc1cc(C)c(Oc2nc(C(C)C(C)C)ccc2C(=O)NS(=O)(=O)c2cccc(N)n2)c(C)c1 (stereo not shown) [Compound 1486, N-[(6-amino-2-pyridyl)sulfonyl]-6-(1,2-dimethylpropyl)-2-(2,4,6-trimethylphenoxy)pyridine-3-carboxamide]	+++ (“+++” means <3 uM)
CC1CN(c2nc(C(C)(C)C)c(C3=COCCC3)cc2C(=O)NS(=O)(=O)c2cccc(N)n2)C(C)(C)C1 (stereo not shown) [Compound 1487, N-[(6-amino-2-pyridyl)sulfonyl]-6-tert-butyl-5-(3,4-dihydro-2H-pyran-5-yl)-2-(2,2,4-trimethylpyrrolidin-1-yl)pyridine-3-carboxamide]	+++ (“+++” means <3 uM)
CCOc1cc(C)cc(-c2ccc(C(=O)NS(=O)(=O)c3cccc(N)n3)c(N3C[C@@H](C)CC3(C)C)n2)c1 [Compound 1488, N-[(6-amino-2-pyridyl)sulfonyl]-6-(3-ethoxy-5-methyl-phenyl)-2-[(4S)-2,2,4-trimethylpyrrolidin-1-yl]pyridine-3-carboxamide]	+++ (“+++” means <3 uM)
CC(C)C(C)c1ccc(C(=O)NS(=O)(=O)c2cccc(N)n2)c(N2C[C@@H](C)CC2(C)C)n1 (stereo partly drawn) [Compound 1489, N-[(6-amino-2-pyridyl)sulfonyl]-6-(1,2-dimethylpropyl)-2-[(4S)-2,2,4-trimethylpyrrolidin-1-yl]pyridine-3-carboxamide]	+++ (“+++” means <3 uM)
CCOC(=O)/C=C/c1cc(C(=O)NS(=O)(=O)c2cccc(N)n2)c(N2C[C@@H](C)CC2(C)C)nc1C(C)(C)C [Compound 1490, Ethyl (E)-3-[5-[(6-amino-2-pyridyl)sulfonylcarbamoyl]-2-tert-butyl-6-[(4S)-2,2,4-trimethylpyrrolidin-1-yl]-3-pyridyl]prop-2-enoate]	+++ (“+++” means <3 uM)
CC(C)COc1cc(F)cc(-c2ccc(C(=O)NS(=O)(=O)c3cccc(N)n3)c(C3=CCC(C)(C)CC3)n2)c1 [Compound 1493, N-[(6-amino-2-pyridyl)sulfonyl]-2-(4,4-dimethylcyclohexen-1-yl)-6-(3-fluoro-5-isobutoxy-phenyl)pyridine-3-carboxamide]	+++ (“+++” means <3 uM)
CC(C)COc1cc(F)cc(-c2ccc(C(=O)NS(=O)(=O)c3cccc(N)n3)c(N3CC(C)CC3(C)C)c2F)c1 (stereo not shown) [Compound 1497, N-[(6-amino-2-pyridyl)sulfonyl]-3-fluoro-4-(3-fluoro-5-isobutoxy-phenyl)-2-(2,2,4-trimethylpyrrolidin-1-yl)benzamide]	+++ (“+++” means <3 uM)
CC(C)COc1cc(F)cc(-c2ccc(C(=O)NS(=O)(=O)c3cccc(N)n3)c(OCC3CCOC3)n2)c1 (stereo not shown) [Compound 1499, N-[(6-amino-2-pyridyl)sulfonyl]-6-(3-fluoro-5-isobutoxy-phenyl)-2-(tetrahydrofuran-3-ylmethoxy)pyridine-3-carboxamide]	++ (“++” means between 3 uM and 10 uM)
CC(C)COc1cc(F)cc(-c2ccc(C(=O)NS(=O)(=O)c3cccc(N)n3)c(C3=CC(C)(C)CC3(C)C)n2)c1 [Compound 1502, N-[(6-amino-2-pyridyl)sulfonyl]-6-(3-fluoro-5-isobutoxy-phenyl)-2-(3,3,5,5-tetramethylcyclopenten-1-yl)pyridine-3-carboxamide]	+++ (“+++” means <3 uM)

Second part, the compound after the results:

EC30	SMILES
++ (“++” means between 3 uM and 10 uM)	CC(C)Oc1ccc(-c2nc(N3C[C@H](C)CC3(C)C)ccc2C(=O)NS(=O)(=O)c2cccc(N)n2)cn1 [Compound 1491, N-[(6-amino-2-pyridyl)sulfonyl]-2-(6-isopropoxy-3-pyridyl)-6-[(4R)-2,2,4-trimethylpyrrolidin-1-yl]pyridine-3-carboxamide]
++ (“++” means between 3 uM and 10 uM)	Cc1cc(C)c(Oc2nc(C3CC(=O)CC(C)(C)C3)ccc2C(=O)NS(=O)(=O)c2cccc(N)n2)c(C)c1 (stereo not shown) [Compound 1492, N-[(6-amino-2-pyridyl)sulfonyl]-6-(3,3-dimethyl-5-oxo-cyclohexyl)-2-(2,4,6-trimethylphenoxy)pyridine-3-carboxamide]
+++ (“+++” means <3 uM)	Cc1cc(C)c(Oc2nc(N3[C@H](C)CC[C@@H]3C)ccc2C(=O)NS(=O)(=O)c2cccc(N)n2)c(C)c1 [Compound 1494, N-[(6-amino-2-pyridyl)sulfonyl]-6-[(2R,5S)-2,5-dimethylpyrrolidin-1-yl]-2-(2,4,6-trimethylphenoxy)pyridine-3-carboxamide]
+++ (“+++” means <3 uM)	CC1CN(c2nc(C(C)(C)C)c(C3=CCOCC3)cc2C(=O)NS(=O)(=O)c2cccc(N)n2)C(C)(C)C1 (stereo not shown) [Compound 1495, N-[(6-amino-2-pyridyl)sulfonyl]-6-tert-butyl-5-(3,6-dihydro-2H-pyran-4-yl)-2-(2,2,4-trimethylpyrrolidin-1-yl)pyridine-3-carboxamide]
+++ (“+++” means <3 uM)	Cc1nccc(-c2cccc(S(=O)(=O)NC(=O)c3cc(C(C)(C)C)nn3Cc3c(C)cccc3C)c2)n1 [Compound 1496, 5-tert-butyl-2-[(2,6-dimethylphenyl)methyl]-N-[3-(2-methylpyrimidin-4-yl)phenyl]sulfonyl-pyrazole-3-carboxamide]
+++ (“+++” means <3 uM)	CCOc1cccc2c1CN(Cc1c(C)cccc1C)C2(C)C(=O)NS(=O)(=O)c1cccc(N)n1 (stereo not shown) [Compound 1498, N-[(6-amino-2-pyridyl)sulfonyl]-2-[(2,6-dimethylphenyl)methyl]-4-ethoxy-1-methyl-isoindoline-1-carboxamide]
+++ (“+++” means <3 uM)	C[C@@H]1CN(c2nc(C3CCCCO3)ccc2C(=O)NS(=O)(=O)c2cccc(N)n2)C(C)(C)C1 (stereo partly drawn) [Compound 1500, N-[(6-amino-2-pyridyl)sulfonyl]-6-tetrahydropyran-2-yl-2-[(4S)-2,2,4-trimethylpyrrolidin-1-yl]pyridine-3-carboxamide]
+++ (“+++” means <3 uM)	Cc1cccc(C)c1Cn1nc(-c2coc3ccccc3c2=O)cc1C(=O)NS(=O)(=O)c1ccccc1 [Compound 1501, N-(benzenesulfonyl)-2-[(2,6-dimethylphenyl)methyl]-5-(4-oxochromen-3-yl)pyrazole-3-carboxamide]
++ (“++” means between 3 uM and 10 uM)	C[C@@H]1CN(c2nc(C3CCCCO3)ccc2C(=O)NS(=O)(=O)c2ccc[nH]c2=O)C(C)(C)C1 (stereo partly drawn) [Compound 1503, N-[(2-oxo-1H-pyridin-3-yl)sulfonyl]-6-tetrahydropyran-2-yl-2-[(4S)-2,2,4-trimethylpyrrolidin-1-yl]pyridine-3-carboxamide]
+++ (“+++” means <3 uM)	C[C@@H]1CN(c2nc(-c3ccc(OCC(C)(C)C)nc3)ccc2C(=O)NS(=O)(=O)c2cccc(N)n2)C(C)(C)C1 [Compound 1504, N-[(6-amino-2-pyridyl)sulfonyl]-6-[6-(2,2-dimethylpropoxy)-3-pyridyl]-2-[(4S)-2,2,4-trimethylpyrrolidin-1-yl]pyridine-3-carboxamide]
+++ (“+++” means <3 uM)	CC(C)c1ccc(C(=O)NS(=O)(=O)c2cccc(N)n2)c(N2C[C@@H](C)CC2(C)C)n1 [Compound 1505, N-[(6-amino-2-pyridyl)sulfonyl]-6-isopropyl-2-[(4S)-2,2,4-trimethylpyrrolidin-1-yl]pyridine-3-carboxamide]
+++ (“+++” means <3 uM)	CC(C)CN(C)c1ccc(-c2ccc(C(=O)NS(=O)(=O)c3cccc(N)n3)c(N3[C@H](C)CC[C@@H]3C)n2)cn1 [Compound 1506, N-[(6-amino-2-pyridyl)sulfonyl]-2-[(2S,5R)-2,5-dimethylpyrrolidin-1-yl]-6-[6-[isobutyl(methyl)amino]-3-pyridyl]pyridine-3-carboxamide]
++ (“++” means between 3 uM and 10 uM)	CCc1ccc(C(=O)NS(=O)(=O)c2cccc(N)n2)c(N2C[C@@H](C)CC2(C)C)n1 [Compound 1507, N-[(6-amino-2-pyridyl)sulfonyl]-6-ethyl-2-[(4S)-2,2,4-trimethylpyrrolidin-1-yl]pyridine-3-carboxamide]
+++ (“+++” means <3 uM)	CCOc1cccc2c1CN(Cc1c(C)cc(C)cc1C)C2(C)C(=O)NS(=O)(=O)c1ccccc1O (stereo not shown) [Compound 1509, 4-ethoxy-N-(2-hydroxyphenyl)sulfonyl-1-methyl-2-[(2,4,6-trimethylphenyl)methyl]isoindoline-1-carboxamide]
+++ (“+++” means <3 uM)	CC(C)=C(C)c1ccc(C(=O)NS(=O)(=O)c2cccc(N)n2)c(N2C[C@@H](C)CC2(C)C)n1 [Compound 1510, N-[(6-amino-2-pyridyl)sulfonyl]-6-(1,2-dimethylprop-1-enyl)-2-[(4S)-2,2,4-trimethylpyrrolidin-1-yl]pyridine-3-carboxamide]
